According to PubChem BioAssay AID330 (DTP/NCI, 2004):
Values joined by “and” are separate entries in the source; they are usually repeats but may differ in a detail not shown here. Equal entries are not always repeated. Toxic doses and inconclusive results are not listed.

System: P388 leukemia ip, CD2F1 mice, survival T/C
Experiment: NCI In Vivo Anticancer Drug Screen. Data for tumor model P388 Leukemia (intraperitoneal) in CD2F1 (CDF1) mice
Conditions: endpoint: median survival time, higher = longer survival
Summary of the method: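 Mice carrying the transplanted tumor received test compound or vehicle. Survival was recorded in each group, and the value is the treated-group measurement divided by that of the vehicle-treated control group.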

[1] = dose: 60.0 mg/kg/injection, schedule: Q01DX005 (ip), vehicle: saline with Tween-80
[2] = dose: 120.0 mg/kg/injection, schedule: Q01DX005 (ip), vehicle: saline with Tween-80
[3] = dose: 240.0 mg/kg/injection, schedule: Q01DX005 (ip), vehicle: saline with Tween-80
[4] = dose: 100.0 mg/kg/injection, schedule: Q01DX009 (ip), vehicle: saline
[5] = dose: 6.25 mg/kg/injection, schedule: Q01DX009 (ip), vehicle: saline with Tween-80
[6] = dose: 50.0 mg/kg/injection, schedule: Q01DX009 (ip), vehicle: saline with Tween-80
[7] = dose: 100.0 mg/kg/injection, schedule: Q01DX009 (ip), vehicle: saline with Tween-80
[8] = dose: 100.0 mg/kg/injection, schedule: Q04DX003 (ip), vehicle: saline with Tween-80
[9] = dose: 6.25 mg/kg/injection, schedule: Q01DX005 (ip), vehicle: saline with Tween-80
[10] = dose: 50.0 mg/kg/injection, schedule: Q01DX005 (ip), vehicle: saline with Tween-80

In the case of `CCOC(=O)C(CN1C(=O)c2ccccc2C1=O)(NC(C)=O)C(=O)OCC`, the T/C (dose: 25.0 mg/kg/injection, schedule: Q01DX009 (ip), vehicle: other) is reported as 103 % of control, the T/C (dose: 50.0 mg/kg/injection, schedule: Q01DX009 (ip), vehicle: other) is reported as 106 % of control and the T/C (dose: 100.0 mg/kg/injection, schedule: Q01DX009 (ip), vehicle: other) is reported as 103 % of control. The T/C (dose: 200.0 mg/kg/injection, schedule: Q01DX009 (ip), vehicle: other) was 114 % of control and the T/C (dose: 400.0 mg/kg/injection, schedule: Q01DX009 (ip), vehicle: other) was 120 % of control.
With `O=S(=O)(Nc1ccccn1)c1ccc(NCc2c3ccccc3nc3cc(Cl)ccc23)cc1` the T/C [1] was 97 % of control, the T/C [2] was 98 % of control and the T/C [3] was 96 % of control.
For `Cc1ccc(SCc2cn(C3CC(O)C(CO)O3)c(=O)[nH]c2=O)cc1` (configuration not stated), the T/C (dose: 60.0 mg/kg/injection, schedule: Q01DX005 (ip), vehicle: Klucel (hydroxypropylcellulose) (HPC)) was 99 % of control, the T/C (dose: 120.0 mg/kg/injection, schedule: Q01DX005 (ip), vehicle: Klucel (hydroxypropylcellulose) (HPC)) was 95 % of control and the T/C (dose: 240.0 mg/kg/injection, schedule: Q01DX005 (ip), vehicle: Klucel (hydroxypropylcellulose) (HPC)) was 92 % of control.
For `[Cl][Mo]([Cl])([Cl])[Cl].[Cl][Mo]([Cl])([Cl])[Cl]`, the T/C (dose: 25.0 mg/kg/injection, schedule: Q01DX009 (ip), vehicle: saline) was 104 % of control, the T/C (dose: 50.0 mg/kg/injection, schedule: Q01DX009 (ip), vehicle: saline) was 103 % of control and the T/C [4] was 99 % of control.
For `Cn1c(N)cc2nc3ccccc3n2c1=O`, the T/C [1] was 96 % of control, the T/C [2] was 92 % of control and the T/C [3] was 89 % of control.
For `CC1CN1C(=O)c1cc(C(=O)N2CC2C)cc(C(=O)N2CC2C)c1` (configuration not stated), the T/C [5] was 113 % of control.
For `O=c1[nH]cnc2[nH]ncc12`, the T/C (dose: 20.0 mg/kg/injection, schedule: Q01DX005 (ip), vehicle: saline with Tween-80) was 104 % of control, the T/C (dose: 40.0 mg/kg/injection, schedule: Q01DX005 (ip), vehicle: saline with Tween-80) was 110 % of control and the T/C (dose: 50.0 mg/kg/injection, schedule: Q01DX009 (ip), vehicle: saline sonified) was 95 % of control. The T/C [6] was 95 % of control, the T/C (dose: 50.0 mg/kg/injection, schedule: Q04DX003 (ip), vehicle: saline sonified) was 109 % of control and the T/C (dose: 50.0 mg/kg/injection, schedule: Q04DX003 (ip), vehicle: saline with Tween-80) was 90 % of control. The T/C (dose: 80.0 mg/kg/injection, schedule: Q01DX005 (ip), vehicle: saline with Tween-80) was 106 % of control, the T/C (dose: 100.0 mg/kg/injection, schedule: Q01DX009 (ip), vehicle: saline sonified) was 100 % of control and the T/C [7] was 95 % of control. For the same compound, the T/C (dose: 100.0 mg/kg/injection, schedule: Q04DX003 (ip), vehicle: saline sonified) was 95 % of control, the T/C [8] was 95 % of control and the T/C (dose: 160.0 mg/kg/injection, schedule: Q01DX005 (ip), vehicle: saline with Tween-80) was 104 % of control. The T/C (dose: 200.0 mg/kg/injection, schedule: Q01DX009 (ip), vehicle: saline sonified) was 100 % of control, the T/C (dose: 200.0 mg/kg/injection, schedule: Q04DX003 (ip), vehicle: saline sonified) was 113 % of control and the T/C (dose: 200.0 mg/kg/injection, schedule: Q04DX003 (ip), vehicle: saline with Tween-80) was 104 % of control.
In the case of `CC1(COCCOCC2(C)CO2)CO1` (configuration not stated), the T/C [4] is reported as 118 % of control, the T/C (dose: 100.0 mg/kg/injection, schedule: Q04DX003 (ip), vehicle: saline) is reported as 100 % of control and the T/C (dose: 200.0 mg/kg/injection, schedule: Q04DX003 (ip), vehicle: saline) is reported as 113 % of control. The T/C (dose: 400.0 mg/kg/injection, schedule: Q01DX009 (ip), vehicle: saline sonified) was 177 % of control, the T/C (dose: 400.0 mg/kg/injection, schedule: Q01DX009 (ip), vehicle: saline) was 172 % of control and the T/C (dose: 400.0 mg/kg/injection, schedule: Q04DX003 (ip), vehicle: saline) was 109 % of control. The T/C (dose: 600.0 mg/kg/injection, schedule: Q01DX009 (ip), vehicle: saline sonified) was 200 % of control.
`S=C(S)n1nc(-c2ccccc2)c(N=Nc2cccc(Cl)c2)c1-c1ccccc1` was tested, and the T/C (dose: 100.0 mg/kg/injection, schedule: Q01DX001 (ip), vehicle: saline with Tween-80) was 91 % of control, the T/C (dose: 200.0 mg/kg/injection, schedule: Q01DX001 (ip), vehicle: saline with Tween-80) was 91 % of control and the T/C (dose: 400.0 mg/kg/injection, schedule: Q01DX001 (ip), vehicle: saline with Tween-80) was 113 % of control.
`O=C1C=CC(=O)N1c1ccc(-c2nc3ccccc3o2)cc1` was tested, and the T/C [9] was 109 % of control, the T/C (dose: 12.5 mg/kg/injection, schedule: Q01DX005 (ip), vehicle: saline with Tween-80) was 109 % of control and the T/C (dose: 25.0 mg/kg/injection, schedule: Q01DX005 (ip), vehicle: saline with Tween-80) was 109 % of control and 111 % of control. For the same compound, the T/C [10] was 111 % of control.
`COC(=O)c1cc(-c2ccccc2)c2c(=O)n(-c3ccccc3)[nH]c2n1` was tested, and the T/C [1] was 99 % of control, the T/C [2] was 100 % of control and the T/C [3] was 96 % of control.
`CC(C)(C)c1ccc(C(=O)O)c(O)c1.CC(C)(C)c1ccc(C(=O)O)c(O)c1.[Cu]` was tested, and the T/C (dose: 12.5 mg/kg/injection, schedule: Q04DX003 (ip), vehicle: saline) was 102 % of control, the T/C (dose: 25.0 mg/kg/injection, schedule: Q04DX003 (ip), vehicle: saline) was 94 % of control and the T/C (dose: 50.0 mg/kg/injection, schedule: Q04DX003 (ip), vehicle: saline) was 103 % of control.
For `O=C1CSC(c2ccccc2O)N1c1nncs1` (configuration not stated), the T/C [10] was 94 % of control, the T/C (dose: 100.0 mg/kg/injection, schedule: Q01DX005 (ip), vehicle: saline with Tween-80) was 93 % of control and the T/C (dose: 200.0 mg/kg/injection, schedule: Q01DX005 (ip), vehicle: saline with Tween-80) was 93 % of control.
`C/C(=N\NC(=S)NCc1ccccc1)c1nccnc1C` was tested, and the T/C (dose: 3.13 mg/kg/injection, schedule: Q01DX005 (ip), vehicle: saline with Tween-80) was 104 % of control and the T/C [9] was 109 % of control and 112 % of control.
In the case of `O=C(N/N=C/c1ccccc1O)C(=O)Nc1ccc(F)cc1`, the T/C (dose: 50.0 mg/kg/injection, schedule: Q01DX005 (ip), vehicle: Klucel (hydroxypropylcellulose) (HPC)) is reported as 94 % of control, the T/C (dose: 100.0 mg/kg/injection, schedule: Q01DX005 (ip), vehicle: Klucel (hydroxypropylcellulose) (HPC)) is reported as 92 % of control and the T/C (dose: 200.0 mg/kg/injection, schedule: Q01DX005 (ip), vehicle: Klucel (hydroxypropylcellulose) (HPC)) is reported as 87 % of control.
`CCCCCCC(=O)NC1=C(N2CC2)C(=O)C(NC(=O)CCCCCC)=C(N2CC2)C1=O` was tested, and the T/C (dose: 12.5 mg/kg/injection, schedule: Q04DX003 (ip), vehicle: saline with Tween-80) was 100 % of control, the T/C (dose: 25.0 mg/kg/injection, schedule: Q04DX003 (ip), vehicle: saline with Tween-80) was 109 % of control and the T/C [7] was 245 % of control. The T/C [8] was 159 % of control, the T/C (dose: 150.0 mg/kg/injection, schedule: Q04DX003 (ip), vehicle: saline with Tween-80) was 195 % of control and the T/C (dose: 200.0 mg/kg/injection, schedule: Q01DX009 (ip), vehicle: saline with Tween-80) was 120 % of control.
`O=C(Nc1cccc(C(F)(F)F)c1)C12CC3CC(CC(C3)C1)C2` was tested, and the T/C [5] was 98 % of control, the T/C (dose: 12.5 mg/kg/injection, schedule: Q01DX009 (ip), vehicle: saline with Tween-80) was 100 % of control and the T/C (dose: 25.0 mg/kg/injection, schedule: Q01DX009 (ip), vehicle: saline with Tween-80) was 91 % of control. The T/C [6] was 90 % of control and the T/C [7] was 88 % of control.
With `Cc1cc(C=C2C(=O)c3ccccc3C2=O)cc(C)c1O` the T/C (dose: 100.0 mg/kg/injection, schedule: Q04DX002 (ip), vehicle: saline) was 97 % of control, the T/C (dose: 200.0 mg/kg/injection, schedule: Q04DX002 (ip), vehicle: saline) was 101 % of control and the T/C (dose: 400.0 mg/kg/injection, schedule: Q04DX002 (ip), vehicle: saline) was 93 % of control.
With `O=[N+]([O-])c1cccnc1C1OCCO1` the T/C (dose: 50.0 mg/kg/injection, schedule: Q01DX009 (ip), vehicle: saline + Tween-80 + alcohol) was 102 % of control and the T/C (dose: 100.0 mg/kg/injection, schedule: Q01DX009 (ip), vehicle: saline + Tween-80 + alcohol) was 99 % of control.
